# ChEMBL document CHEMBL4651402, “Screening of ~5500 FDA-approved drugs and clinical candidates for anti-SARS-CoV-2 activity” (2021)
# Tested on: SARS-CoV-2
# Experiment: microbe, parasite or virus in culture
# Conditions: Severe acute respiratory syndrome coronavirus 2, Vero C1008, 48 h
SMILES,IC50 [µM],IC50 (read-out: pIC50 (converted)) [µM]
CC(C(=O)O)c1cccc(C(=O)c2ccccc2)c1 (stereo not drawn) [KETOPROFEN],> 20,> 20
CN[C@H](CC(C)C)C(=O)N[C@H]1C(=O)N[C@@H](CC(N)=O)C(=O)N[C@H]2C(=O)N[C@H]3C(=O)N[C@H](C(=O)N[C@H](C(=O)O)c4cc(O)cc(O)c4-c4cc3ccc4O)[C@H](O[C@H]3C[C@](C)(N)[C@@H](O)[C@H](C)O3)c3ccc(c(Cl)c3)Oc3cc2cc(c3O[C@@H]2O[C@H](CO)[C@@H](O)[C@H](O)[C@H]2O[C@H]2C[C@](C)(NCc3ccc(-c4ccc(Cl)cc4)cc3)[C@@H](O)[C@H](C)O2)Oc2ccc(cc2Cl)[C@H]1O [ORITAVANCIN],> 20,> 20
CN1C(=O)CC(C)(c2ccccc2)C1=O (stereo not drawn) [METHSUXIMIDE],> 20,> 20
CC(C)Oc1ccc(-c2nc(-c3cccc4c3CC[C@@H]4NCCO)no2)cc1C#N [OZANIMOD],> 20,> 20
CC(=O)OC[C@@]1(O)C[C@@]23CC[C@@H]4c5ccoc5CC[C@@]4(C)[C@@H]2CC[C@@H]1C3 [CAFESTOL ACETATE],> 20,> 20
CC(C(=O)O)C1CCC2C3CC=C4C[C@@H](O)CC[C@]4(C)C3CC[C@]12C (stereo partly drawn),> 20,> 20
CC12CC(=O)C3C(CC[C@H]4CC(O)CCC34C)C1CCC2C(=O)CO (stereo partly drawn),> 20,> 20
O=C(O)c1ccccc1S [THIOSALICYLIC ACID],> 20,> 20
CN1CCC/C1=N\C(=N\c1ccccc1)N1CCCC1 [PIROGLIRIDE],> 20,> 20
CN(C)c1ccc(C(=C2C=CC(=[N+](C)C)C=C2)c2ccc(N(C)C)cc2)cc1 [GENTIAN VIOLET],> 20,> 20
CN[C@H](CC(C)C)C(=O)N[C@H]1C(=O)N[C@@H](CC(N)=O)C(=O)N[C@H]2C(=O)N[C@H]3C(=O)N[C@H](C(=O)N[C@H](C(=O)O)c4cc(O)cc(O)c4-c4cc3ccc4O)[C@H](O)c3ccc(c(Cl)c3)Oc3cc2cc(c3O[C@@H]2O[C@H](CO)[C@@H](O)[C@H](O)[C@H]2O[C@H]2C[C@](C)(N)[C@H](O)[C@H](C)O2)Oc2ccc(cc2Cl)[C@H]1O [VANCOMYCIN],> 20,> 20
COc1cc(N)c(Cl)cc1C(=O)N[C@@H]1CCNC[C@@H]1OC [TICALOPRIDE],> 20,> 20
CCCCNC(=O)NC1CCN(c2ncnc3cc(OC)c(OC)cc23)CC1 [BUQUINERAN],> 20,> 20
Cc1cnc(NC(=O)C2=C(O)c3ccccc3S(=O)(=O)N2C)s1 [MELOXICAM],> 20,> 20
NC(=O)c1cnc2n1CCc1ccccc1C21CCNCC1 [VAPITADINE],> 20,> 20
COc1ccc(CCN(C)CCCC2(c3ccc(OC)c(OC)c3)S(=O)(=O)CCCS2(=O)=O)cc1OC,> 20,> 20
Nc1ncnc2c([C@@H]3N[C@H](CO)[C@@H](O)[C@H]3O)c[nH]c12,> 100,> 100
CC(C)S(=O)(=O)n1c(N)nc2ccc(C(=NO)c3ccccc3)cc21 [VIROXIME],> 20,> 20
CC1CC(OC(=O)C(O)c2ccccc2)CC(C)(C)C1 (stereo not drawn) [CYCLANDELATE],> 20,> 20
CC(C)Cc1sc(N)nc1-c1ccc(P(=O)(O)O)o1 [MB-05032],> 20,> 20
CCN(CC)CC(C)(C)COC(=O)c1ccc(N)cc1,> 20,> 20
CC(CCC(=O)O)C1CCC2C3CC[C@@H]4C[C@H](O)CC[C@]4(C)C3C[C@H](O)[C@]12C (stereo partly drawn),> 20,> 20
C=C[C@@H]1CN2CCC1C[C@@H]2[C@H](O)c1ccnc2ccccc12 (stereo partly drawn),> 20,> 20

SMILES,IC50 [µM],IC50 (read-out: pIC50 (converted)) [µM]
CCCc1c(OCCCCc2nnn[nH]2)ccc(C(C)=O)c1O [TOMELUKAST],> 20,> 20
COc1cc(/C=C/C(=O)N2CCN(CC(=O)N3CCCC3)CC2)cc(OC)c1OC [CINEPAZIDE],> 20,> 20
CCS(=O)(=O)CCn1c([N+](=O)[O-])cnc1C [TINIDAZOLE],> 20,> 20
CC1(C)CCC2(C)CCC3(C)C(=CCC4C5(C)CCC(O)C(C)(C)[C@@H]5CCC43C)C2C1 (stereo partly drawn),> 20,> 20
CS(=O)(=O)c1ccc(-c2cnc(N)c(-c3ccc(C(F)(F)F)nc3)c2)cc1 [MMV-048],> 20,> 20
CCNC(=O)/C=C/c1cccc(Br)c1 [CINROMIDE],> 20,> 20
C[C@]12CC[C@H](O)CC1=CC[C@@H]1[C@@H]2CC[C@]2(C)C(n3cnc4ccccc43)=CC[C@@H]12 [GALETERONE],> 20,> 20
COc1c2c(cc3c1OCO3)CC[N+](C)=C2 [COTARNINE],> 20,> 20
Clc1ccc(C(Cn2ccnc2)OCc2ccc(Sc3ccccc3)cc2)c(Cl)c1 (stereo not drawn) [FENTICONAZOLE],> 20,> 20
COc1ccc(CCNCCC(=O)N2CCCSc3ccccc32)cc1OC,> 20,> 20
CC(=O)Nc1ccccc1 [ACETANILIDE],> 20,> 20
CC(C)(C(=O)c1cccnc1)c1cccnc1 [METYRAPONE],> 20,> 20
OC[C@H]1O[C@@H](c2ccc(Cl)c(Cc3ccc(O[C@H]4CCOC4)cc3)c2)[C@H](O)[C@@H](O)[C@@H]1O [EMPAGLIFLOZIN],> 20,> 20
O=C(O)COCCN1CCN(C(c2ccccc2)c2ccc(Cl)cc2)CC1 (stereo not drawn) [CETIRIZINE],> 20,> 20
COc1cc(CNC(=O)CCCC/C=C/C(C)C)ccc1O [CAPSAICIN],> 20,> 20
CC(C)(C)NC(=O)N[C@H](C(=O)N1C[C@H]2[C@@H]([C@H]1C(=O)NC(CC1CCC1)C(=O)C(N)=O)C2(C)C)C(C)(C)C (stereo partly drawn) [BOCEPREVIR],> 20,> 20
N=C(N)NCCNS(=O)(=O)c1cccc2cnccc12,> 20,> 20
Cc1cccc(C)c1NC(=O)C1CCCCN1C (stereo not drawn) [MEPIVACAINE],> 20,> 20
O=C(CCCN1CC=C(n2c(=O)[nH]c3ccccc32)CC1)c1ccc(F)cc1 [DROPERIDOL],> 20,> 20
CC(=O)O[C@@H]1C[C@H]2C(C)(C)C(=O)C=C[C@]2(C)[C@H]2CC[C@@]3(C)[C@H](c4ccoc4)OC(=O)[C@H]4O[C@]43[C@@]21C [GEDUNIN],> 20,> 20
CCCN(CCC)S(=O)(=O)c1ccc(C(=O)O)cc1 [PROBENECID],> 20,> 20
O[C@H]1CC[C@H](Nc2ncc3nc(Nc4c(F)cc(F)cc4F)n([C@H]4CCOC4)c3n2)CC1 [TANZISERTIB],> 20,> 20
CO[C@]12C[C@@H](COC(=O)c3cncc(Br)c3)CN(C)[C@@H]1Cc1cn(C)c3cccc2c13 [NICERGOLINE],> 20,> 20

SMILES,IC50 [µM],IC50 (read-out: pIC50 (converted)) [µM]
CCOC(=O)/C=C(C)/C=C/C=C(C)/C=C/c1c(C)cc(OC)c(C)c1C [ETRETINATE],> 20,> 20
CCCCCCCCCCCC[N+](C)(C)CCOc1ccccc1 [DOMIPHEN],> 20,> 20
NC(=O)N1c2ccccc2C=Cc2ccccc21 [CARBAMAZEPINE],> 20,> 20
O=C(Nc1ccccc1Br)N[C@H]1CCN(c2ccc(C(F)(F)F)cn2)C1,> 20,> 20
O=C(OC1C[C@@H]2CC3C[C@@H](C1)N2CC3=O)c1c[nH]c2ccccc12 (stereo partly drawn),> 20,> 20
CC(NC(C)(C)C)C(=O)c1cccc(Cl)c1 (stereo not drawn) [BUPROPION],> 20,> 20
Nc1nc(=O)n([C@@H]2CS[C@H](CO)O2)cc1F [EMTRICITABINE],> 20,> 20
NC(CO)C(=O)NNCc1ccc(O)c(O)c1O (stereo not drawn) [BENSERAZIDE],> 20,> 20
Cn1cc(CC(N)C(=O)O)c2ccccc21 (stereo not drawn) [1-METHYLTRYPTOPHAN],> 20,> 20
COC1(C)CCC2OC2(C)CCC2C1CC2(C)C (stereo not drawn) [2-METHOXY-5 (6)EPOXY-TETRAHYDROCARYOPHYLLENE],> 20,> 20
CN(C)C1CCc2[nH]c3ccccc3c2C1 (stereo not drawn) [CYCLINDOLE],> 20,> 20
Cc1[nH]c2ccccc2c1CN(C)C [2-METHYL GRAMINE],> 20,> 20
C[C@]12CCC(=O)C[C@@H]1CC[C@@H]1[C@@H]2CC[C@]2(C)[C@@H](O)CC[C@@H]12 [STANOLONE],> 20,> 20
Cc1ccn(-c2cc(Cl)ccc2[C@@H](Oc2cc(-c3ccc(C[C@H](N)C(=O)O)cc3)nc(N)n2)C(F)(F)F)n1 [TELOTRISTAT],> 20,> 20
CN(C)C(=O)Oc1cc(OC(=O)N(C)C)cc(C(O)CNC(C)(C)C)c1 (stereo not drawn) [BAMBUTEROL],> 20,> 20
COc1cc2c(cc1-c1cc3cc4ccoc4cc3oc1=O)OCO2 [PACHYRRIZINE],> 20,> 20
CN1CCC23CCCCC2C1Cc1ccc(O)cc13 (stereo not drawn) [RACEMORPHAN],> 20,> 20
NC[C@H](O)c1ccc(O)c(O)c1 [NOREPINEPHRINE],> 20,> 20
CC(=O)OC(C)C(=O)OCC[N+](C)(C)C (stereo not drawn) [ACLATONIUM],> 20,> 20
N[C@@H]1CONC1=O [CYCLOSERINE],> 20,> 20
CNCCc1ccc(OC(=O)C(C)C)c(OC(=O)C(C)C)c1 [IBOPAMINE],> 20,> 20
CC[C@@](C)(Nc1ccnc(-c2c[nH]c3ncccc23)n1)C(=O)NCC(F)(F)F [DECERNOTINIB],> 20,> 20
NC(=O)C[S+]([O-])C(c1ccccc1)c1ccccc1 (stereo not drawn) [MODAFINIL],> 20,> 20
